According to patent US11793849B2, “Method of Chinese herbal medicine extract used for treating multiple diseases caused by drug resistant bacteria infection” (priority 2016, dated 2023):
Read-outs that look alike come from different tables or passages of the source.

Tested on: MDRAB
Assay: Checkerboard assay (combined-use MIC, FIC)
Type: cell-based, Acinetobacter baumannii
Details: for FIC, all strains / MIC50 of the antibiotic after combined use / MIC90 of the antibiotic after combined use / reduction of the antibiotic's MIC50 vs single use / reduction of the antibiotic's MIC90 vs single use / share of strains with FIC ≤ 0.5: 20 MDRABs; for MIC: Acinetobacter baumannii, read-out: single-use MIC
How it was run: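 Checkerboard combinations of S20b and antibiotic run per NCCLS method against ESBL E. coli, MDR A. baumannii and MDR P. aeruginosa.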

[1] = antibiotic with 60% ethanol extract
[2] = antibiotic with 95% ethanol extract
[3] = antibiotic with EA (10% ethanol extract)
[4] = antibiotic with EA (water extract)

C[C@H]1COc2c(N3CCN(C)CC3)c(F)cc3c(=O)c(C(=O)O)cn1c23 [LVX, Levofloxacin]
50%: reduction of the antibiotic's MIC50 vs single use [1] | reduction of the antibiotic's MIC50 vs single use [2] | reduction of the antibiotic's MIC50 vs single use [3]
1 µg/mL: combined-use MIC (strain A5, EA (water extract) with LVX) | combined-use MIC (strain A12, EA (60% ethanol extract) + LVX combined) | combined-use MIC (strain A12, EA (P. clypearia 95% ethanol extract) combined with LVX) | combined-use MIC (strain A18, EA (water extract) with LVX)
0.5 µg/mL: MIC (strain A1, EA=10% ethanol extract) | MIC (strain A1, EA=60% ethanol extract) | MIC (strain A4, EA=10% ethanol extract) | MIC (strain A4, EA=60% ethanol extract)
0.0625 µg/mL: combined-use MIC (strain A1, EA (10% ethanol extract) + LVX combined) | combined-use MIC (strain A1, EA (60% ethanol extract) + LVX combined) | combined-use MIC (strain A1, EA (water extract) with LVX) | combined-use MIC (strain A3, EA (60% ethanol extract) + LVX combined) | combined-use MIC (strain A4, EA (10% ethanol extract) + LVX combined) | combined-use MIC (strain A4, EA (60% ethanol extract) + LVX combined) | combined-use MIC (strain A4, EA (P. clypearia 95% ethanol extract) combined with LVX) | combined-use MIC (strain A4, EA (water extract) with LVX) | combined-use MIC (strain A9, EA (10% ethanol extract) + LVX combined) | combined-use MIC (strain A9, EA (60% ethanol extract) + LVX combined) | combined-use MIC (strain A9, EA (P. clypearia 95% ethanol extract) combined with LVX) | combined-use MIC (strain A9, EA (water extract) with LVX) | combined-use MIC (strain A10, EA (60% ethanol extract) + LVX combined) | combined-use MIC (strain A13, EA (60% ethanol extract) + LVX combined) | combined-use MIC (strain A15, EA (60% ethanol extract) + LVX combined) | combined-use MIC (strain A15, EA (water extract) with LVX)
0.25 µg/mL: combined-use MIC (strain A1, EA (P. clypearia 95% ethanol extract) combined with LVX)
≤ 2: FIC, all strains [1] | FIC, all strains [2] | FIC, all strains [3] | FIC, all strains [4]
25%: share of strains with FIC ≤ 0.5 [3]
16 µg/mL: MIC (strain A2, EA=10% ethanol extract) | MIC (strain A2, EA=60% ethanol extract) | MIC (strain A3, EA=10% ethanol extract) | MIC (strain A3, EA=60% ethanol extract) | MIC (strain A14, EA=10% ethanol extract) | MIC (strain A14, EA=60% ethanol extract) | MIC (strain A17, EA=10% ethanol extract) | MIC (strain A17, EA=60% ethanol extract) | MIC (strain A19, EA=10% ethanol extract) | MIC (strain A19, EA=60% ethanol extract) | MIC (strain A20, EA=10% ethanol extract) | MIC (strain A20, EA=60% ethanol extract) | combined-use MIC (strain A2, EA (60% ethanol extract) + LVX combined) | combined-use MIC (strain A2, EA (water extract) with LVX) | combined-use MIC (strain A15, EA (10% ethanol extract) + LVX combined)
35%: share of strains with FIC ≤ 0.5 [4]
75%: reduction of the antibiotic's MIC90 vs single use [1] | reduction of the antibiotic's MIC90 vs single use [2] | reduction of the antibiotic's MIC90 vs single use [3] | reduction of the antibiotic's MIC50 vs single use [4] | reduction of the antibiotic's MIC90 vs single use [4]
5%: share of strains with FIC ≤ 0.5 [1]
20%: share of strains with FIC ≤ 0.5 [2]
2 µg/mL: MIC50 of the antibiotic after combined use [4] | combined-use MIC (strain A3, EA (10% ethanol extract) + LVX combined) | combined-use MIC (strain A3, EA (P. clypearia 95% ethanol extract) combined with LVX) | combined-use MIC (strain A3, EA (water extract) with LVX) | combined-use MIC (strain A5, EA (10% ethanol extract) + LVX combined) | combined-use MIC (strain A8, EA (10% ethanol extract) + LVX combined) | combined-use MIC (strain A8, EA (P. clypearia 95% ethanol extract) combined with LVX) | combined-use MIC (strain A10, EA (P. clypearia 95% ethanol extract) combined with LVX) | combined-use MIC (strain A11, EA (10% ethanol extract) + LVX combined) | combined-use MIC (strain A11, EA (water extract) with LVX) | combined-use MIC (strain A12, EA (water extract) with LVX) | combined-use MIC (strain A13, EA (P. clypearia 95% ethanol extract) combined with LVX) | combined-use MIC (strain A15, EA (P. clypearia 95% ethanol extract) combined with LVX) | combined-use MIC (strain A16, EA (water extract) with LVX) | combined-use MIC (strain A19, EA (10% ethanol extract) + LVX combined) | combined-use MIC (strain AS, EA (P. clypearia 95% ethanol extract) combined with LVX)
8 µg/mL: MIC90 of the antibiotic after combined use [1] | MIC90 of the antibiotic after combined use [2] | MIC90 of the antibiotic after combined use [3] | MIC90 of the antibiotic after combined use [4] | MIC (strain A6, EA=10% ethanol extract) | MIC (strain A6, EA=60% ethanol extract) | MIC (strain A7, EA=10% ethanol extract) | MIC (strain A7, EA=60% ethanol extract) | MIC (strain A16, EA=10% ethanol extract) | MIC (strain A16, EA=60% ethanol extract) | MIC (strain A18, EA=10% ethanol extract) | MIC (strain A18, EA=60% ethanol extract) | combined-use MIC (strain A2, EA (10% ethanol extract) + LVX combined) | combined-use MIC (strain A2, EA (P. clypearia 95% ethanol extract) combined with LVX) | combined-use MIC (strain A10, EA (10% ethanol extract) + LVX combined) | combined-use MIC (strain A10, EA (water extract) with LVX) | combined-use MIC (strain A12, EA (10% ethanol extract) + LVX combined) | combined-use MIC (strain A13, EA (10% ethanol extract) + LVX combined) | combined-use MIC (strain A13, EA (water extract) with LVX) | combined-use MIC (strain A14, EA (10% ethanol extract) + LVX combined) | combined-use MIC (strain A14, EA (60% ethanol extract) + LVX combined) | combined-use MIC (strain A14, EA (P. clypearia 95% ethanol extract) combined with LVX) | combined-use MIC (strain A14, EA (water extract) with LVX) | combined-use MIC (strain A17, EA (water extract) with LVX) | combined-use MIC (strain A19, EA (60% ethanol extract) + LVX combined) | combined-use MIC (strain A19, EA (P. clypearia 95% ethanol extract) combined with LVX) | combined-use MIC (strain A19, EA (water extract) with LVX) | combined-use MIC (strain A20, EA (60% ethanol extract) + LVX combined) | combined-use MIC (strain A20, EA (P. clypearia 95% ethanol extract) combined with LVX)
4 µg/mL: MIC50 of the antibiotic after combined use [1] | MIC50 of the antibiotic after combined use [2] | MIC50 of the antibiotic after combined use [3] | MIC (strain A5, EA=10% ethanol extract) | MIC (strain A5, EA=60% ethanol extract) | MIC (strain A8, EA=10% ethanol extract) | MIC (strain A8, EA=60% ethanol extract) | MIC (strain A9, EA=10% ethanol extract) | MIC (strain A9, EA=60% ethanol extract) | MIC (strain A11, EA=10% ethanol extract) | MIC (strain A11, EA=60% ethanol extract) | combined-use MIC (strain A5, EA (60% ethanol extract) + LVX combined) | combined-use MIC (strain A6, EA (10% ethanol extract) + LVX combined) | combined-use MIC (strain A6, EA (60% ethanol extract) + LVX combined) | combined-use MIC (strain A6, EA (P. clypearia 95% ethanol extract) combined with LVX) | combined-use MIC (strain A6, EA (water extract) with LVX) | combined-use MIC (strain A7, EA (10% ethanol extract) + LVX combined) | combined-use MIC (strain A7, EA (60% ethanol extract) + LVX combined) | combined-use MIC (strain A7, EA (P. clypearia 95% ethanol extract) combined with LVX) | combined-use MIC (strain A7, EA (water extract) with LVX) | combined-use MIC (strain A8, EA (60% ethanol extract) + LVX combined) | combined-use MIC (strain A8, EA (water extract) with LVX) | combined-use MIC (strain A11, EA (60% ethanol extract) + LVX combined) | combined-use MIC (strain A11, EA (P. clypearia 95% ethanol extract) combined with LVX) | combined-use MIC (strain A16, EA (10% ethanol extract) + LVX combined) | combined-use MIC (strain A16, EA (60% ethanol extract) + LVX combined) | combined-use MIC (strain A16, EA (P. clypearia 95% ethanol extract) combined with LVX) | combined-use MIC (strain A17, EA (10% ethanol extract) + LVX combined) | combined-use MIC (strain A17, EA (60% ethanol extract) + LVX combined) | combined-use MIC (strain A17, EA (P. clypearia 95% ethanol extract) combined with LVX) | combined-use MIC (strain A18, EA (10% ethanol extract) + LVX combined) | combined-use MIC (strain A18, EA (60% ethanol extract) + LVX combined) | combined-use MIC (strain A18, EA (P. clypearia 95% ethanol extract) combined with LVX) | combined-use MIC (strain A20, EA (10% ethanol extract) + LVX combined) | combined-use MIC (strain A20, EA (water extract) with LVX)
32 µg/mL: MIC (strain A10, EA=10% ethanol extract) | MIC (strain A10, EA=60% ethanol extract) | MIC (strain A12, EA=10% ethanol extract) | MIC (strain A12, EA=60% ethanol extract) | MIC (strain A13, EA=10% ethanol extract) | MIC (strain A13, EA=60% ethanol extract) | MIC (strain A15, EA=10% ethanol extract) | MIC (strain A15, EA=60% ethanol extract)
